2 compounds from the kinase profiling compilation of Christmann-Franck et al. (2016) can be followed below.

Several values for one entry are separate records, joined by “and”; a condition that tells them apart may be missing. Equal values may be shown once.

Among the targets are LYN (human) (UniProt P07948); MYLK (human) (UniProt Q15746); PTK2 (human) (UniProt Q05397); CAMKK1 (human) (UniProt Q8N5S9); TEC (human) (UniProt P42680); PIM3 (human) (UniProt Q86V86); EPHB1 (human) (UniProt P54762); NUAK2 (human) (UniProt Q9H093); NEK11 (human) (UniProt Q8NG66); PKN2 (human) (UniProt Q16513); PRKCB1 (human) (UniProt P05771); CAMK4 (human) (UniProt Q16566); SLK (human) (UniProt Q9H2G2); FRK (human) (UniProt P42685); TTK (human) (UniProt P33981); CAMK1D (human) (UniProt Q8IU85); TNK2 (human) (UniProt Q07912); MAPK13 (human) (UniProt O15264); OXSR1 (human) (UniProt O95747); IKBKB (human) (UniProt O14920); MATK (human) (UniProt P42679); NEK3 (human) (UniProt P51956); AKT2 (human) (UniProt P31751); MELK (human) (UniProt Q14680); ADRBK1 (human) (UniProt P25098); EPHA3 (human) (UniProt P29320); FYN (human) (UniProt P06241); TBK1 (human) (UniProt Q9UHD2); MARK4 (human) (UniProt Q96L34); GRK5 (human) (UniProt P34947); DYRK4 (human) (UniProt Q9NR20); TGFBR2 (human) (UniProt P37173); STK16 (human) (UniProt O75716); EPHA5 (human) (UniProt P54756); CDK4 CCND3 (human) (UniProt P30281+P11802); HIPK2 (human) (UniProt Q9H2X6); HIPK1 (human) (UniProt Q86Z02); PDGFRB (human) (UniProt P09619); HCK (human) (UniProt P08631).

Test in all cases: radiometric filter-binding kinase assay, Kinase HotSpot
Holding throughout (conditions): compound 0.5 µM; ATP 10 µM

Sequence of LYN (human) (P07948 whole entry, looked up): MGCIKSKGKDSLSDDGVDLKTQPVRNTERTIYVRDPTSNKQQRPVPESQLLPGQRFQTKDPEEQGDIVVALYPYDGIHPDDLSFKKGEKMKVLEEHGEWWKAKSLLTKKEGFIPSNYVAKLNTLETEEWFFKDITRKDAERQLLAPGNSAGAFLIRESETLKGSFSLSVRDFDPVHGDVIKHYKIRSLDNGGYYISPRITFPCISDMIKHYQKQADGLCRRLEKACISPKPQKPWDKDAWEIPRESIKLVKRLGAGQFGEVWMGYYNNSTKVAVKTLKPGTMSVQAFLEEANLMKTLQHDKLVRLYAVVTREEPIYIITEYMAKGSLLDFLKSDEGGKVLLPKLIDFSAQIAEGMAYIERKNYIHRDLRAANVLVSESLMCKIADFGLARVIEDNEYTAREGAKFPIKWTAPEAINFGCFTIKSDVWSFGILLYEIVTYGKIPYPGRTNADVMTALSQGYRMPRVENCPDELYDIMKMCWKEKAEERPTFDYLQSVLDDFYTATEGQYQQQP
Sequence of FRK (human) (P42685 whole entry, looked up): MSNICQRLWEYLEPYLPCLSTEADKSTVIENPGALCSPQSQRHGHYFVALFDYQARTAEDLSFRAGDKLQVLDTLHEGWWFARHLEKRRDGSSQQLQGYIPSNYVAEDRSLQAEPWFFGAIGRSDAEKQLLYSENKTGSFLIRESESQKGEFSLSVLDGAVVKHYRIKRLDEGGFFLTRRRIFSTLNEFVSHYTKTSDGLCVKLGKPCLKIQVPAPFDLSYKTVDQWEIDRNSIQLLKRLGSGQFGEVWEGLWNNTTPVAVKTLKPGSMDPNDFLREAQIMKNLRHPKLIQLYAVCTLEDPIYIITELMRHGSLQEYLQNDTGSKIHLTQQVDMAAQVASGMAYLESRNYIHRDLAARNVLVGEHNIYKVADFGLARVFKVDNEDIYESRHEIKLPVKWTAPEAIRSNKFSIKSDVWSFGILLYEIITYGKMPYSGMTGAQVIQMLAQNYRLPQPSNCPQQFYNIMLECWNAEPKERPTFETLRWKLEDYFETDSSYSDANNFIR
Sequence of TBK1 (human) (Q9UHD2 whole entry, looked up): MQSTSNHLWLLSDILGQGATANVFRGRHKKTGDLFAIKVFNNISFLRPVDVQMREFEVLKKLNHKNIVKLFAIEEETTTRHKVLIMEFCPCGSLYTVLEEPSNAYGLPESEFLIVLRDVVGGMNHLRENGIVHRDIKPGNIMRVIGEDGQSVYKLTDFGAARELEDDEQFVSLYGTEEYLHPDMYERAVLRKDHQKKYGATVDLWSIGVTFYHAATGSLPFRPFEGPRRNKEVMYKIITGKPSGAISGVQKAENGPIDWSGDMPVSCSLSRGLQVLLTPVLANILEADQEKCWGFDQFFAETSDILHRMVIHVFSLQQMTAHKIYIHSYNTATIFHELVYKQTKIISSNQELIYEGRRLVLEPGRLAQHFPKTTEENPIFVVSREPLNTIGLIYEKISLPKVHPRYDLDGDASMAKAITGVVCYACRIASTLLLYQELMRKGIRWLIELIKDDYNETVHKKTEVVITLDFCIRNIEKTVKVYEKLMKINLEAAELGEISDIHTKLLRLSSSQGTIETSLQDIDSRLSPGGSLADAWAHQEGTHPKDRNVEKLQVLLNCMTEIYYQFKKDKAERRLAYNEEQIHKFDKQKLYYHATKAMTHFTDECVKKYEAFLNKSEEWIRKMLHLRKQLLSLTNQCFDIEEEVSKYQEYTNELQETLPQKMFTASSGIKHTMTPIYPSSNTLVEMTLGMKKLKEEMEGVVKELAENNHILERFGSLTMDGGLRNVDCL
Sequence of MARK4 (human) (Q96L34 whole entry, looked up): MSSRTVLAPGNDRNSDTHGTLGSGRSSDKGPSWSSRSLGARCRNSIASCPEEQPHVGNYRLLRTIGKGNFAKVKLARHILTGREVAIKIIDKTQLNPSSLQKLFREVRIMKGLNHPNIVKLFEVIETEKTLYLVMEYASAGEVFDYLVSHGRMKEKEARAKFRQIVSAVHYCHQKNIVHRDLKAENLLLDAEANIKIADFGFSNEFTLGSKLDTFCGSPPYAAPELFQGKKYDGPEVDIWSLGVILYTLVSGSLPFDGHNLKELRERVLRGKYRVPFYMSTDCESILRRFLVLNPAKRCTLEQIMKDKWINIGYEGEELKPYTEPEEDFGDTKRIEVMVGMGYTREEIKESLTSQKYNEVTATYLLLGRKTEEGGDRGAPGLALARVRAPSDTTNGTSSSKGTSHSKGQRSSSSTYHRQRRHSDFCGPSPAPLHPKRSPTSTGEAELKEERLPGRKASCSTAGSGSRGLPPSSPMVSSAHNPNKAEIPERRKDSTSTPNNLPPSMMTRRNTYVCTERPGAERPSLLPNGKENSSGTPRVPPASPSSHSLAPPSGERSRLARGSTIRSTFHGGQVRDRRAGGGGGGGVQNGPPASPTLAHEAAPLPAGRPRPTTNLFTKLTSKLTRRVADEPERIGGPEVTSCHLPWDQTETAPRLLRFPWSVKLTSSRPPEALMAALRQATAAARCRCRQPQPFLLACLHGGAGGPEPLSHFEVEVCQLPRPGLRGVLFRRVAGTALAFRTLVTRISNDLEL
Sequence of CAMKK1 (human) (Q8N5S9 whole entry, looked up): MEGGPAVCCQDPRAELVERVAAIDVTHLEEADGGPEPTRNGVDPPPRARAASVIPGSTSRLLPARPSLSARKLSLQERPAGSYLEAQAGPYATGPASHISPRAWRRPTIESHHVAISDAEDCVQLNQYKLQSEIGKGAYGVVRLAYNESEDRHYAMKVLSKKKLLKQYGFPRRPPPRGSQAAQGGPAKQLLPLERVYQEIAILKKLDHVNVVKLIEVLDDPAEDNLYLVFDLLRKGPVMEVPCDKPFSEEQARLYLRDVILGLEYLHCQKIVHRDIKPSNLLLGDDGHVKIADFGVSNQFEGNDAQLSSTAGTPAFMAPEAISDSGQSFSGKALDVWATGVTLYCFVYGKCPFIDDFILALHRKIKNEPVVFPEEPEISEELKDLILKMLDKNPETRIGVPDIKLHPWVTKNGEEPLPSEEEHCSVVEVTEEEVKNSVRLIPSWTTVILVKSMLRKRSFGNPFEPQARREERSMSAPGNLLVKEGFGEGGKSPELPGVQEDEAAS
Sequence of EPHB1 (human) (P54762 whole entry, looked up): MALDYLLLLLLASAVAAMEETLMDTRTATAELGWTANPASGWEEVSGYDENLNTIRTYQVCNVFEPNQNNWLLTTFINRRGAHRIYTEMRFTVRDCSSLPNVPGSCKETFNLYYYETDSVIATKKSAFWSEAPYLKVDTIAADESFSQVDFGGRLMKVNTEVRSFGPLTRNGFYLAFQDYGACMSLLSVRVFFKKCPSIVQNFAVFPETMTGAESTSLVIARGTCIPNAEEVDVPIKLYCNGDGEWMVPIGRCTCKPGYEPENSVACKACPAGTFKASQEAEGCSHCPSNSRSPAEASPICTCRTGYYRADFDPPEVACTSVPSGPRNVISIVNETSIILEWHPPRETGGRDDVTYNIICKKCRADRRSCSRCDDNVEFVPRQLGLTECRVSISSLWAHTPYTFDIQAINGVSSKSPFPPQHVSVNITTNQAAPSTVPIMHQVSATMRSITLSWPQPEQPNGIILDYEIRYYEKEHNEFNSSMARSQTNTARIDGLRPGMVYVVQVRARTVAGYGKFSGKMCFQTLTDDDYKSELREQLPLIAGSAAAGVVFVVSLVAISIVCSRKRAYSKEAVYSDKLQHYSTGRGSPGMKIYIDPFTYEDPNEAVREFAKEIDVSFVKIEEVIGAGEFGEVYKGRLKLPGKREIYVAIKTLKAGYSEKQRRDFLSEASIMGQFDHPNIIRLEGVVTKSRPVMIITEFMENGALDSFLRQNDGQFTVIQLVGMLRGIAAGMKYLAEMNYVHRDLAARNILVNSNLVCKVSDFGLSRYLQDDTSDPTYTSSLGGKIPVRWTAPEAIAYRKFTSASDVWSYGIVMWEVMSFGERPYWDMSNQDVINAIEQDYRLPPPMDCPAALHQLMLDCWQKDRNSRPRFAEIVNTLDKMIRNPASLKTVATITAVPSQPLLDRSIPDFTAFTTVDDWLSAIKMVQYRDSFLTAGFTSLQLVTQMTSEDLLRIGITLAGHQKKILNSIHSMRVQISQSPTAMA
Sequence of PKN2 (human) (Q16513 whole entry, looked up): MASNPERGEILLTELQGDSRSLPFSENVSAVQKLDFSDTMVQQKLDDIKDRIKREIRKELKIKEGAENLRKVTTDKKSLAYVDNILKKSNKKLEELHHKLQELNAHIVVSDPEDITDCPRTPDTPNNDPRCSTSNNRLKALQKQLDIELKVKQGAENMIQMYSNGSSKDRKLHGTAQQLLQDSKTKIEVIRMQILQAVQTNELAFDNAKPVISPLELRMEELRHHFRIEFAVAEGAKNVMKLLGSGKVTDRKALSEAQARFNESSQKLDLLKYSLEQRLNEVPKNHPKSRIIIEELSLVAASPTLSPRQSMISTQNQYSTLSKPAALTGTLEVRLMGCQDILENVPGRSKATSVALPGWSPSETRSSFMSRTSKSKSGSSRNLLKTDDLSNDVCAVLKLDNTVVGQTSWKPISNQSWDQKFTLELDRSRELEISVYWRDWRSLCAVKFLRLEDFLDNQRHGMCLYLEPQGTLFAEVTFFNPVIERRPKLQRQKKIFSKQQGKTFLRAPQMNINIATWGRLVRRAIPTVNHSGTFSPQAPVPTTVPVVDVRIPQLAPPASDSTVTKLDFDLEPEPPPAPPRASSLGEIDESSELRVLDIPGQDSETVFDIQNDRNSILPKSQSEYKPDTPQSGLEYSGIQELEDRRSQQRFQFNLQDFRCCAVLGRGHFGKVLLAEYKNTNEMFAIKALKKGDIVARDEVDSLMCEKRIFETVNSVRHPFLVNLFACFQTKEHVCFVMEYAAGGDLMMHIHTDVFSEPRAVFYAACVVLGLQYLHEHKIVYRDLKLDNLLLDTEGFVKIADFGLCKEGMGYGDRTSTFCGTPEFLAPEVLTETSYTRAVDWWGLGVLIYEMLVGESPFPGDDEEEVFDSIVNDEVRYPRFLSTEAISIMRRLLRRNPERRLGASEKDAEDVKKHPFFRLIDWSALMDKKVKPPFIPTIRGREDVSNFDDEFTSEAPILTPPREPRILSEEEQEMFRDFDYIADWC

For the compound `COc1cc2c(Nc3ccc(Br)cc3F)ncnc2cc1OCC1CCN(C)CC1`, the residual activity (usually the signal under treatment as a percentage of the control signal) on LYN (human) was 10.8% and 16.7%; on MYLK (human) it was 94.2%; at PTK2 (human), 100%; on CAMKK1 (human) it was 90.4%; on TEC (human), 91.6%; at PIM3 (human), 96.1%. The residual activity on EPHB1 (human) came to 27.8%; on NUAK2 (human), 100%; at NEK11 (human) it was 103%; on PKN2 (human), 99.7%; at PRKCB1 (human), 89.1%; on CAMK4 (human) it was 101%. The residual activity at SLK (human) was found to be 73.9%; at FRK (human), 79.5%; on TTK (human), 95.1%; at CAMK1D (human) it was 90.6%; on TNK2 (human) it was 85.4%; at MAPK13 (human) it was 95.5%. The residual activity stood at 100% at OXSR1 (human); 87.7% at IKBKB (human); 101% at MATK (human); 103% on NEK3 (human); 110% on AKT2 (human); 94.4% at MELK (human). The residual activity was 92.2% on ADRBK1 (human); 57.7% on EPHA3 (human); 48.2% at FYN (human); 99.9% at TBK1 (human); 99.4% on MARK4 (human); 95.8% on GRK5 (human). Further, the residual activity at DYRK4 (human) came out at 102%; on TGFBR2 (human) it was 102%; at STK16 (human), 101%; on EPHA5 (human) it was 54.4%; on CDK4 CCND3 (human), 101%; at HIPK2 (human) it was 99.4%. On HIPK1 (human), the residual activity was 96.7%.

With `CN[C@@H]1C[C@H]2O[C@@](C)([C@@H]1OC)n1c3ccccc3c3c4c(c5c6ccccc6n2c5c31)C(=O)NC4`, the residual activity on LYN (human) was 1.18% and 5.72%; at CAMKK1 (human), -3.13%; at EPHB1 (human), 12%; at PDGFRB (human) it was 2.28%; at FRK (human), 5.5%; at HCK (human), 3.26%. In addition, the residual activity is -0.455% at TBK1 (human) and -0.0069% at MARK4 (human).
